Activity calls are given as the source filed them. The rule behind the calls is not given here.
What was measured:
Rattus norvegicus [1] = assay: In vivo pentobarbital (30 mg/kg ip)-induced hypnosis in rats after intracerebroventricular administration at a dose of 7.80 uL by pretreatment with atropine (1.0 mg/kg iv); format: functional
Rattus norvegicus [2] = assay: In vivo pentobarbital (30 mg/kg ip)-induced hypnosis in rats after iv administration at a dose of 184 umol; format: functional
Cavia porcellus [3] = species: Cavia porcellus; assay: Inhibitory activity against L-glutamate decarboxylase treated from 0.01 to 10 mM concentrations of the compound; Inactive
Rattus norvegicus [4] = assay: In vivo pentobarbital (30 mg/kg ip)-induced hypnosis in rats after intracerebroventricular administration at a dose of 7.80 uL; format: functional
Cavia porcellus [5] = species: Cavia porcellus; assay: Effect on ileal tone in guinea pig up to 100 uM; No effect; format: functional
Rattus norvegicus [6] = assay: In vivo pentobarbital (30 mg/kg ip)-induced hypnosis in rats after intracerebroventricular administration at a dose of 1.95uL; format: functional
Rattus norvegicus [7] = assay: In vivo pentobarbital (30 mg/kg ip)-induced hypnosis in rats after iv administration at a dose of 92 umol; format: functional
Rattus norvegicus [8] = assay: In vivo pentobarbital (30 mg/kg ip)-induced hypnosis in rats after intracerebroventricular administration at a dose of 3.90 uL; format: functional
Rattus norvegicus [9] = assay: In vivo pentobarbital (30 mg/kg ip)-induced hypnosis in rats after iv administration at a dose of 368 umol; format: functional
Rattus norvegicus [10] = assay: In vivo pentobarbital (30 mg/kg ip)-induced hypnosis in rats after intracerebroventricular administration at a dose of 15.6 uL by pretreatment with atropine (1.0 mg/kg iv); format: functional
Cavia porcellus [11] = species: Cavia porcellus; assay: Inhibitory activity against L-glutamic decarboxylase treated from 0.01 to 10 mM concentrations of the compound; Inactive
Rattus norvegicus [12] = assay: In vivo pentobarbital (30 mg/kg ip)-induced hypnosis in rats after intracerebroventricular administration at a dose of 15.6 uL; format: functional
Rattus norvegicus [13] = assay: In vivo pentobarbital (30 mg/kg ip)-induced hypnosis in rats after iv administration at a dose of 23 umol; format: functional
[14] = target: GABA-B receptor (Homo sapiens) (UniProt Q9UBS5+O75899); assay: Antagonistic potency against Gamma-aminobutyric acid type B receptor of guinea pig ileum; format: functional, tissue-based; details: Cavia porcellus, target entry is the homologue from another species
Rattus norvegicus [15] = assay: In vivo pentobarbital (30 mg/kg ip)-induced hypnosis in rats; Moderate dyspnea; format: functional, organism-based
Rattus norvegicus [16] = assay: In vivo pentobarbital (30 mg/kg ip)-induced hypnosis in rats after iv administration at a dose of 46 umol; format: functional

Structure (SMILES)	Hypnosis duration (Rattus norvegicus [2]) [min]	Ileal activity (Cavia porcellus [5])	Hypnosis duration (Rattus norvegicus [7]) [min]	Hypnosis duration (Rattus norvegicus [8]) [min]	Hypnosis duration (Rattus norvegicus [13]) [min]	Hypnosis duration (Rattus norvegicus [16]) [min]	other results
CN1C=CC(CC2C=CN(C)C=C2C(=O)NCCCC(=O)[O-])C(C(=O)NCCCC(=O)[O-])=C1.[Na+].[Na+] (centres undefined)	80	inactive	149	142			Hypnosis duration (Rattus norvegicus [1]): 184 min; Activity (Cavia porcellus [3]): inactive; Hypnosis duration (Rattus norvegicus [4]): 60 min; Hypnosis duration (Rattus norvegicus [6]): 147 min
COS(=O)(=O)[O-].C[n+]1cccc(C(=O)NCCCC(=O)O)c1		inactive					Hypnosis duration (Rattus norvegicus [9]): 153 min; Hypnosis duration (Rattus norvegicus [10]): 158 min; Activity (Cavia porcellus [11]): inactive; Hypnosis duration (Rattus norvegicus [12]): 100 min
CN1C=CC(CC2C=CN(C)C=C2C(=O)NCCCC(=O)OCc2ccccc2)C(C(=O)NCCCC(=O)OCc2ccccc2)=C1 (centres undefined)					206	257	Effect (Cavia porcellus [5]): inactive; pD2 [14]: 5.59; Adverse effect (Rattus norvegicus [15]): Moderate dyspnea
C[n+]1cccc(C(=O)NCCCC(=O)OCc2ccccc2)c1.[I-]			194		156	207	Hypnosis duration (Rattus norvegicus [15]): Moderate dyspnea
NCCCC(=O)O [GAMMA-AMINOBUTYRIC ACID]	128			188			

From ChEMBL document CHEMBL1136325, “Synthesis and biological evaluation of GABA derivatives able to cross the blood-brain barrier in rats” (2003)
